Data published in patent US9884842B2, “Combretastatin analogs” (The Board of Trustees of the University of Arkansas, priority 2013, dated 2018).

Assays:
OVCAR-3 = test: cells; settings: Homo sapiens
K-562 = test: NCI growth inhibition and cytotoxicity screen, Leukemia panel; settings: Homo sapiens
RPMI-8226 = test: as above; settings: Homo sapiens
LOX-IMVI = test: NCI growth inhibition and cytotoxicity screen, Melanoma panel; settings: Homo sapiens
M14 = test: as above; settings: Homo sapiens
SK-MEL-2 = test: as above; settings: Homo sapiens
SK-MEL-28 = test: as above; settings: Homo sapiens
UACC-257 = test: as above; settings: Homo sapiens
UACC-62 = test: as above; settings: Homo sapiens
SF-268 = test: NCI growth inhibition and cytotoxicity screen, CNS Cancer panel; settings: Homo sapiens
SF-539 = test: as above; settings: Homo sapiens
SNB-19 = test: as above; settings: Homo sapiens
SNB-75 = test: as above; settings: Homo sapiens
U251 = test: as above; settings: Homo sapiens
A549/ATCC = test: NCI growth inhibition and cytotoxicity screen, Lung Cancer panel; settings: Homo sapiens
HOP-92 = test: as above; settings: Homo sapiens
NCI-H226 = test: as above; settings: Homo sapiens
NCI-H460 = test: as above; settings: Homo sapiens
HT29 = test: NCI growth inhibition and cytotoxicity screen, Colon Cancer panel; settings: Homo sapiens
KM12 = test: as above; settings: Homo sapiens
786-0 = test: NCI growth inhibition and cytotoxicity screen, Renal Cancer panel; settings: Homo sapiens
A498 = test: as above; settings: Homo sapiens
CAKI-1 = test: as above; settings: Homo sapiens
TK-10 = test: as above; settings: Homo sapiens
MCF7 = test: NCI growth inhibition and cytotoxicity screen, Breast Cancer panel; settings: Homo sapiens
BT-549 = test: as above; settings: Homo sapiens
T-47D = test: as above; settings: Homo sapiens, T47D
IGROV1 = test: NCI growth inhibition and cytotoxicity screen, Ovarian Cancer panel; settings: Homo sapiens
OVCAR-5 = test: as above; settings: Homo sapiens
NCI/ADR-RES = test: as above; settings: Homo sapiens
SK-OV-3 = test: as above; settings: Homo sapiens

Q: With COc1cc(OC)cc(/C(C#N)=C/c2c[nH]c3ccccc23)c1 [Formula (I)(b)] as the compound, how does the GI50 (OVCAR-3; OVCAR-3) read?
A: 31.2 nM

Q: And the CC50 (OVCAR-3; OVCAR-3, read-out: LC50)?
A: > 100000 nM

Q: And the GI50 (K-562; K562)?
A: 43.2 nM

Q: What about the CC50 (K-562; K562, read-out: LC50) of the same compound?
A: > 100000 nM

Q: And the GI50 (RPMI-8226; RPMI-8226)?
A: 65.5 nM

Q: And the CC50 (RPMI-8226; RPMI-8226, read-out: LC50)?
A: > 100000 nM

Q: And the GI50 (LOX-IMVI)?
A: 78.4 nM

Q: What about the CC50 (LOX-IMVI; read-out: LC50) of the same compound?
A: > 100000 nM

Q: And the GI50 (M14; M14)?
A: 42.4 nM

Q: What about the CC50 (M14; M14, read-out: LC50) of the same compound?
A: > 100000 nM

Q: What about the GI50 (SK-MEL-2; SK-MEL-2) of the same compound?
A: 51.2 nM

Q: And the CC50 (SK-MEL-2; SK-MEL-2, read-out: LC50)?
A: > 100000 nM

Q: And the GI50 (SK-MEL-28; SK-MEL-28)?
A: 81.1 nM

Q: And the CC50 (SK-MEL-28; SK-MEL-28, read-out: LC50)?
A: > 100000 nM

Q: And the GI50 (UACC-257; UACC-257)?
A: 48.7 nM

Q: What about the CC50 (UACC-257; UACC-257, read-out: LC50) of the same compound?
A: > 100000 nM

Q: And the GI50 (UACC-62; UACC-62)?
A: 49.3 nM

Q: What about the CC50 (UACC-62; UACC-62, read-out: LC50) of the same compound?
A: > 100000 nM

Q: And the GI50 (SF-268; SF-268)?
A: 78.3 nM

Q: What about the CC50 (SF-268; SF-268, read-out: LC50) of the same compound?
A: > 100000 nM

Q: What about the GI50 (SF-539; SF-539) of the same compound?
A: 52.2 nM

Q: What about the CC50 (SF-539; SF-539, read-out: LC50) of the same compound?
A: 90200 nM

Q: What about the GI50 (SNB-19; SNB-19) of the same compound?
A: 62.1 nM

Q: What about the CC50 (SNB-19; SNB-19, read-out: LC50) of the same compound?
A: > 100000 nM

Q: What about the GI50 (SNB-75; SNB-75) of the same compound?
A: 34.8 nM

Q: And the CC50 (SNB-75; SNB-75, read-out: LC50)?
A: > 100000 nM

Q: What about the GI50 (U251; U-251) of the same compound?
A: 45.4 nM

Q: What about the CC50 (U251; U-251, read-out: LC50) of the same compound?
A: > 100000 nM

Q: And the GI50 (A549/ATCC; A549)?
A: 61.8 nM

Q: What about the CC50 (A549/ATCC; A549, read-out: LC50) of the same compound?
A: > 100000 nM

Q: And the GI50 (HOP-92; HOP-92)?
A: 68.4 nM

Q: What about the CC50 (HOP-92; HOP-92, read-out: LC50) of the same compound?
A: > 100000 nM

Q: What about the GI50 (NCI-H226; NCI-H226) of the same compound?
A: > 100 nM

Q: What about the CC50 (NCI-H226; NCI-H226, read-out: LC50) of the same compound?
A: > 100000 nM

Q: And the GI50 (NCI-H460; NCI-H460)?
A: 39.2 nM

Q: And the CC50 (NCI-H460; NCI-H460, read-out: LC50)?
A: > 100000 nM

Q: What about the GI50 (HT29; HT-29) of the same compound?
A: 38.4 nM

Q: What about the CC50 (HT29; HT-29, read-out: LC50) of the same compound?
A: > 100000 nM

Q: What about the GI50 (KM12; KM12) of the same compound?
A: 40.9 nM

Q: And the CC50 (KM12; KM12, read-out: LC50)?
A: > 100000 nM

Q: And the GI50 (786-0; 786-0)?
A: 77.3 nM

Q: And the CC50 (786-0; 786-0, read-out: LC50)?
A: > 100000 nM

Q: What about the GI50 (A498; A498) of the same compound?
A: 35.3 nM

Q: What about the CC50 (A498; A498, read-out: LC50) of the same compound?
A: > 100000 nM

Q: And the GI50 (CAKI-1; CAKI-1)?
A: 35 nM

Q: And the CC50 (CAKI-1; CAKI-1, read-out: LC50)?
A: > 100000 nM

Q: And the GI50 (TK-10; TK-10)?
A: > 100 nM

Q: What about the CC50 (TK-10; TK-10, read-out: LC50) of the same compound?
A: > 100000 nM

Q: And the GI50 (MCF7; MCF7)?
A: 41.4 nM

Q: What about the CC50 (MCF7; MCF7, read-out: LC50) of the same compound?
A: > 100000 nM

Q: What about the GI50 (BT-549; BT-549) of the same compound?
A: > 100 nM

Q: And the CC50 (BT-549; BT-549, read-out: LC50)?
A: > 100000 nM

Q: What about the GI50 (T-47D) of the same compound?
A: > 100 nM

Q: And the CC50 (T-47D; read-out: LC50)?
A: > 100000 nM

Q: What about the GI50 (IGROV1; IGROV-1) of the same compound?
A: > 100 nM

Q: What about the CC50 (IGROV1; IGROV-1, read-out: LC50) of the same compound?
A: > 100000 nM

Q: What about the GI50 (OVCAR-5; OVCAR-5) of the same compound?
A: > 100 nM

Q: And the CC50 (OVCAR-5; OVCAR-5, read-out: LC50)?
A: > 100000 nM

Q: What about the GI50 (NCI/ADR-RES) of the same compound?
A: 33.3 nM

Q: And the CC50 (NCI/ADR-RES; read-out: LC50)?
A: > 100000 nM

Q: What about the GI50 (SK-OV-3; SK-OV-3) of the same compound?
A: > 100 nM

Q: What about the CC50 (SK-OV-3; SK-OV-3, read-out: LC50) of the same compound?
A: > 100000 nM
